Laboratory results taken from the NIST ThermoML archive (doi:10.1016/j.tca.2004.12.009).
Numbers after ± are expanded uncertainties.

Key:
[1] = DTA
[2] = Molar enthalpy of transition or fusion; settings: DSC

Normal melting temperature ([1]; Crystal 1): 170.60 ± 0.6 °C
Normal melting temperature ([1]; Metastable crystal): 162.90 ± 0.9 °C
Molar enthalpy of transition or fusion ([2]; Crystal 1): 13.2 ± 0.43 kcal/mol
Molar enthalpy of transition or fusion ([2]; Metastable crystal): 12.2 ± 0.813 kcal/mol
Compound: NC(N)=Nc1nc(CSCC/C(N)=N/S(N)(=O)=O)cs1 [famotidine]
